Assay results taken from patent US20080193379A1, “Radioactive Diagnostic Imaging Agent” (Nihon Medi-Physics Co., Ltd., priority 2005, published 2008).

What was measured:
[1] = as injection additive; cited from earlier work
[2] = Radiolysis stability of 18F-FDG solutions with mannitol: radiochemical purity by TLC (Examples 13-18, Comparative Example 2); assay type: physicochemical; conditions: added at 2.5 mmol/L or higher concentrations
Procedure: The same procedure as in Comparative Example 1 and Examples 1 through 12 was repeated to obtain a ^18F-FDG stock solution (radioactivity=126.3 GBq). To the ^18F-FDG stock solution, physiological saline was added for dilution so that the resulting solution had 92.5 MBq/mL 4.5 hours after preparation. This gave a ^18F-FDG solution.
To 2 mL of the above-obtained ^18F-FDG solution, the mannitol solutions having different concentrations shown in Table 3 were each added in amounts shown in Table 3, and mixed at room temperature to prepare respective sample solutions.
The above-obtained samples were subjected to TLC analysis on the below conditions immediately after the preparation of ^18F-FDG solution (Comparative Example 2 only), and 4.5 and 8.5 hours after the preparation. Radiochemical purity was obtained based on the area percentage of the ^18F-FDG peak. The radiochemical purity at each time point was compared to one another to evaluate stability of the samples.
TLC plate=Silica Gel 60 F254 (under trade name, manufactured by Merck & Co., Inc.)
Developing solvent=acetonitrile/water=19:1
Detector=Radiochromanizer (JTC-R75-21361, manufactured by Aloka)

[3] = aqueous solution; reported by Sara Goldstein et al.; cited from earlier work
glucose transporters = conditions: reported by Heli Teerijoki et al. and A. N. Ouraishi et al.; cited from earlier work

Structure (SMILES)	Maximum dose for intravenous injection [1] [mg]	Prevention of the decrease in radiochemical purity of 18F-FDG caused by radiolysis [2]	Scavenger of OH radicals [3]	Substrate for glucose transporters (glucose transporters)
OC[C@@H](O)[C@H](O)[C@@H](O)CO [xylitol]	200			
OC[C@H]1O[C@@H](O[C@H]2[C@H](O)[C@@H](O)C(O)O[C@@H]2CO)[C@H](O)[C@@H](O)[C@H]1O (stereo partly drawn) [lactose]	1250			
OC[C@H]1O[C@H](O[C@H]2[C@H](O)[C@@H](O)[C@H](O)O[C@@H]2CO)[C@H](O)[C@@H](O)[C@@H]1O [maltose]	10000			
O=C(CO)[C@@H](O)[C@H](O)[C@H](O)CO [fructose]	900			
OC[C@@H](O)[C@@H](O)[C@H](O)[C@H](O)CO [mannitol]	1200	can significantly prevent the decrease in the radiochemical purity	acts as a scavenger of OH radials	does not serve as a substrate for glucose transporters
OC[C@@H](O)[C@@H](O)[C@H](O)[C@@H](O)CO [sorbitol]	1500			
